Laboratory results: patent publication US20250282799A1, “SUBSTITUTED PYRIDO[4,3-d]PYRIMIDINES AS KRAS MODULATORS” (Alterome Therapeutics, Inc., priority 2023, published 2025)

Test system: KRAS G12V dependent lung adenocarcinoma cell line, NCI-H441
Assay: Cellular pERK (Thr202/Tyr204) FRET/HTRF assay
Format: cell-based
Conditions: Homo sapiens, NCI-H441, cellular pERK (Thr202/Tyr204) HTRF, NCI-H441 cells
How it was run: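 Using a mix-and-read HTRF kit, phospho-ERK (Thr202/Tyr204) was detected in NCI-H441 lysates following 1 hr compound incubation at 37 °C, 5% CO2. Cells had been seeded overnight beforehand, and IC50 was derived by curve fitting.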

| SMILES | IC50 |
| --- | --- |
| C#Cc1c(F)ccc2cc(N)cc(-c3ncc4c(N5CCOC[C@H]6[C@H](F)[C@H]65)nc(OC[C@@]56CCCN5CC5(CC5)C6)nc4c3F)c12 [Example 187, 4-(2-(((S)-dihydro-1′H,3′H-spiro[cyclopropane-1,2′-pyrrolizin]-7a′(5′H)-yl)methoxy)-8-fluoro-4-((1S,7S,8S)-8-fluoro-5-oxa-2-azabicyclo[5.1.0]octan-2-yl)pyrido[4,3-d]pyrimidin-7-yl)-5-ethynyl-6-fluoronaphthalen-2-amine] | < 50 nM |
| Nc1cc(Cl)c(C(F)(F)F)c(-c2ncc3c(N4CCCC[C@H]5[C@H](F)[C@H]54)nc(OC[C@@]45CCCN4C/C(=C\F)C5)nc3c2F)c1 [Example 373, 3-chloro-5-(8-fluoro-4-((1S,7R,8S)-8-fluoro-2-azabicyclo[5.1.0]octan-2-yl)-2-(((S,Z)-2-(fluoromethylene)tetrahydro-1H-pyrrolizin-7a(5H)-yl)methoxy)pyrido[4,3-d]pyrimidin-7-yl)-4-(trifluoromethyl)aniline] | < 50 nM |
| [2H]C([2H])(Oc1nc(N2CCOC[C@@H]3[C@@H](F)[C@@H]32)c2cc(F)c(-c3nc(N)cc(C)c3C(F)(F)F)c(F)c2n1)[C@@]12CCCN1C[C@H](F)C2 [Example 176, 6-(6,8-difluoro-4-((1R,7R,8R)-8-fluoro-5-oxa-2-azabicyclo[5.1.0]octan-2-yl)-2-(((2R,7aS)-2-fluorotetrahydro-1H-pyrrolizin-7a(5H)-yl)methoxy-d2)quinazolin-7-yl)-4-methyl-5-(trifluoromethyl)pyridin-2-amine] | 500 to 10000 nM |
| [2H]C([2H])(Oc1nc(N2CCOC[C@H]3[C@H](F)[C@H]32)c2cnc(-c3c(F)c(N)c(F)c(C)c3C(F)(F)F)c(F)c2n1)[C@@]12CCCN1C[C@H](F)C2 [Example 279, 2,6-difluoro-3-(8-fluoro-4-((1S,7S,8S)-8-fluoro-5-oxa-2-azabicyclo[5.1.0]octan-2-yl)-2-(((2R,7aS)-2-fluorotetrahydro-1H-pyrrolizin-7a(5H)-yl)methoxy-d2)pyrido[4,3-d]pyrimidin-7-yl)-5-methyl-4-(trifluoromethyl)aniline] | 50 to 500 nM |
| C#Cc1c(F)ccc2cc(N)cc(-c3ncc4c(N5CCOC[C@H]6[C@H](F)[C@H]65)nc(OC[C@@]56CCCN5C/C(=C/F)C6)nc4c3C)c12 [Example 426, 5-ethynyl-6-fluoro-4-(4-((1S,7S,8S)-8-fluoro-5-oxa-2-azabicyclo[5.1.0]octan-2-yl)-2-(((S,E)-2-(fluoromethylene)tetrahydro-1H-pyrrolizin-7a(5H)-yl)methoxy)-8-methylpyrido[4,3-d]pyrimidin-7-yl)naphthalen-2-amine] | < 50 nM |
| C#Cc1c(F)ccc2cc(N)cc(-c3ncc4c(N5CCOC[C@H]6[C@H](F)[C@H]65)nc(OC[C@@]56CCCN5CC(=C(F)F)C6)nc4c3F)c12 [Example 134, 4-(2-(((S)-2-(difluoromethylene)tetrahydro-1H-pyrrolizin-7a(5H)-yl)methoxy)-8-fluoro-4-((1S,7S,8S)-8-fluoro-5-oxa-2-azabicyclo[5.1.0]octan-2-yl)pyrido[4,3-d]pyrimidin-7-yl)-5-ethynyl-6-fluoronaphthalen-2-amine] | < 50 nM |
| C#Cc1c(F)ccc2cccc(-c3ncc4c(N5CCCC[C@H]6[C@H](F)[C@H]65)nc(OC[C@]56CC(=C)CN5CCC65CC5)nc4c3F)c12 [Example 423, (R)-7a′-(((7-(8-Ethynyl-7-fluoronaphthalen-1-yl)-8-fluoro-4-((1S,7R,8S)-8-fluoro-2-azabicyclo[5.1.0]octan-2-yl)pyrido[4,3-d]pyrimidin-2-yl)oxy)methyl)-6′-methylenehexahydrospiro[cyclopropane-1,1′-pyrrolizine]] | < 50 nM |
| [2H]C([2H])(Oc1nc(N2CCC(=O)C[C@H]3[C@@H](F)[C@H]32)c2cnc(-c3cc(N)cc4cc(F)c(F)c(C#C)c34)c(F)c2n1)[C@@]12CCCN1C[C@H](F)C2 [Example 197, (1S,7R,8R)-2-(7-(3-amino-8-ethynyl-6,7-difluoronaphthalen-1-yl)-8-fluoro-2-(((2R,7aS)-2-fluorotetrahydro-1H-pyrrolizin-7a(5H)-yl)methoxy-d2)pyrido[4,3-d]pyrimidin-4-yl)-8-fluoro-2-azabicyclo[5.1.0]octan-5-one] | 50 to 500 nM |
| [2H]C([2H])(F)Oc1c(F)ccc2cccc(-c3ncc4c(N5CCOC[C@H]6[C@H](F)[C@H]65)nc(OC[C@@]56CCCN5C/C(=C/F)C6)nc4c3F)c12 [Example 156, (1S,7S,8S)-8-fluoro-2-(8-fluoro-7-(7-fluoro-8-(fluoromethoxy-d2)naphthalen-1-yl)-2-(((S,E)-2-(fluoromethylene)tetrahydro-1H-pyrrolizin-7a(5H)-yl)methoxy)pyrido[4,3-d]pyrimidin-4-yl)-5-oxa-2-azabicyclo[5.1.0]octane] | < 50 nM |
| Nc1cc(Cl)c(C(F)(F)F)c(-c2ncc3c(N4CCCC[C@H]5[C@H](F)[C@H]54)nc(OC[C@]45C/C(=C\F)CN4CCC54CC4)nc3c2F)c1 [Example 378, 3-chloro-5-(8-fluoro-4-((1S,7R,8S)-8-fluoro-2-azabicyclo[5.1.0]octan-2-yl)-2-(((R,E)-6′-(fluoromethylene)tetrahydrospiro[cyclopropane-1,1′-pyrrolizin]-7a′(5′H)-yl)methoxy)pyrido[4,3-d]pyrimidin-7-yl)-4-(trifluoromethyl)aniline] | 50 to 500 nM |
| Nc1cc(Cl)c(C(F)(F)F)c(-c2ncc3c(N4CCCC[C@H]5[C@H](F)[C@H]54)nc(OC[C@@]45CCCN4C/C(=C/F)C5)nc3c2F)c1 [Example 371, 3-chloro-5-(8-fluoro-4-((1S,7R,8S)-8-fluoro-2-azabicyclo[5.1.0]octan-2-yl)-2-(((S,E)-2-(fluoromethylene)tetrahydro-1H-pyrrolizin-7a(5H)-yl)methoxy)pyrido[4,3-d]pyrimidin-7-yl)-4-(trifluoromethyl)aniline] | < 50 nM |
| Cc1c(F)c(N)cc(-c2ncc3c(N4CCCC[C@H]5[C@H](F)[C@H]54)nc(OC[C@]45CC(=C(F)F)CN4CCC54CC4)nc3c2F)c1C(F)(F)F [Example 412, 5-(2-(((R)-6′-(difluoromethylene)tetrahydrospiro [cyclopropane-1,1′-pyrrolizin]-7a′(5′H)-yl)methoxy)-8-fluoro-4-((1S,7R,8S)-8-fluoro-2-azabicyclo[5.1.0]octan-2-yl)pyrido[4,3-d]pyrimidin-7-yl)-2-fluoro-3-methyl-4-(trifluoromethyl)aniline] | 500 to 10000 nM |
| C#Cc1c(F)ccc2cc(N)cc(-c3ncc4c(N5CCOC[C@H]6[C@H](Cl)[C@H]65)nc(OC[C@@H]5CCCN5C)nc4c3F)c12 [Example 302, 4-(4-((1S,7S,8S)-8-chloro-5-oxa-2-azabicyclo[5.1.0]octan-2-yl)-8-fluoro-2-(((S)-1-methylpyrrolidin-2-yl)methoxy)pyrido[4,3-d]pyrimidin-7-yl)-5-ethynyl-6-fluoronaphthalen-2-amine] | < 50 nM |
| C#Cc1c(F)ccc2cc(N)cc(-c3ncc4c(N5CCOC[C@H]6[C@H](F)[C@H]65)nc(OC[C@@]56CCCN5C[C@H](F)C6)nc4c3F)c12 [Example 212, 5-Ethynyl-6-fluoro-4-(8-fluoro-4-((1S,7S,8S)-8-fluoro-5-oxa-2-azabicyclo[5.1.0]octan-2-yl)-2-(((2R,7aS)-2-fluorotetrahydro-1H-pyrrolizin-7a(5H)-yl)methoxy)pyrido[4,3-d]pyrimidin-7-yl)naphthalen-2-amine] | < 50 nM |
| [2H]C([2H])([2H])Oc1c(F)c(F)cc2cncc(-c3ncc4c(N5CCOC[C@H]6[C@H](F)[C@H]65)nc(OC([2H])([2H])[C@@]56CCCN5C[C@H](F)C6)nc4c3F)c12 [Example 136, (1S,7S,8S)-2-(7-(6,7-difluoro-5-(methoxy-d3)isoquinolin-4-yl)-8-fluoro-2-(((2R,7aS)-2-fluorotetrahydro-1H-pyrrolizin-7a(5H)-yl)methoxy-d2)pyrido[4,3-d]pyrimidin-4-yl)-8-fluoro-5-oxa-2-azabicyclo[5.1.0]octane] | 50 to 500 nM |

Same assay, conditions: Homo sapiens, NCI-H441, pERK HTRF, NCI-H441 cells (KRAS G12V)

| SMILES | IC50 |
| --- | --- |
| [2H]C([2H])([2H])Oc1c(F)ccc2cccc(-c3ncc4c(N5CCCC[C@H]6[C@H](F)[C@H]65)nc(OC([2H])([2H])[C@@]56CCCN5C[C@H](F)C6)nc4c3F)c12 [Example 68, 8-Fluoro-7-(7-fluoro-8-(methoxy-d3)naphthalen-1-yl)-4-((1S,7R,8S)-8-fluoro-2-azabicyclo[5.1.0]octan-2-yl)-2-(((2R,7aS)-2-fluorotetrahydro-1H-pyrrolizin-7a(5H)-yl)methoxy-d2)pyrido[4,3-d]pyrimidine] | < 50 nM |
| [2H]C([2H])(Oc1nc(N2CCOC[C@H]3[C@@H](F)[C@H]32)c2cnc(-c3cc(N)cc4cc(F)c(F)c(C#C)c34)c(F)c2n1)[C@@]12CCCN1C[C@H](F)C2 [Example 30, 5-Ethynyl-6,7-difluoro-4-(8-fluoro-4-((1S,7S,8R)-8-fluoro-5-oxa-2-azabicyclo[5.1.0]octan-2-yl)-2-(((2R,7aS)-2-fluorotetrahydro-1H-pyrrolizin-7a(5H)-yl)methoxy-d2)pyrido[4,3-d]pyrimidin-7-yl)naphthalen-2-amine] | < 50 nM |

Same assay, conditions: cellular pERK HTRF, NCI-H441 (KRAS G12V) cells

| SMILES | IC50 |
| --- | --- |
| [2H]C([2H])(Oc1nc(N2CCOC[C@H]3[C@H](F)[C@H]32)c2cc(F)c(-c3cc(O)cc4ccc(F)c(C#C)c34)c(C)c2n1)[C@@]12CCCN1C[C@H](F)C2 [Example 469, 5-ethynyl-6-fluoro-4-((S)-6-fluoro-4-((1S,7S,8S)-8-fluoro-5-oxa-2-azabicyclo[5.1.0]octan-2-yl)-2-(((2R,7aS)-2-fluorotetrahydro-1H-pyrrolizin-7a(5H)-yl)methoxy-d2)-8-methylquinazolin-7-yl)naphthalen-2-ol] | < 50 nM |
